Here are results for 88 compounds from a melting point compilation (Tetko et al.; mined from patent text by program, amines drawn as free bases though some values may be those of a salt).

Structures are written as SMILES.

As for `O=C1CC(c2ccccc2O)=Nc2ccc(N3CCOCC3)cc21`, the melting point was in the range of 290 to 291 °C.

The compound `C#CCc1nc(-c2ccc(C)cc2)oc1C` returned a melting point of 65 to 68 °C.

In turn, `CS(=O)c1cc(O)ccc1-c1nc2cnccc2[nH]1` (stereo not drawn) registered a melting point of 215 °C.

`O=C(O)c1cccc(-c2ncn(-c3ccc(-c4ccccc4)cc3)n2)c1` displayed a melting point of 263 to 265 °C.

`COc1ccc(N(CCN2CCC(C(=O)c3ccc(F)cc3)CC2)C(=O)c2ccc(C#N)cc2)cc1`: the melting point was in the range of 136 to 149 °C.

Consider `O=c1nc(N2CCN(Cc3ccccc3)CC2)sc2c([N+](=O)[O-])cc(C(F)(F)F)cc12`, for which the melting point lay within 161 to 163 °C.

As for `CCNC(=O)c1c(Cl)cccc1[Si](C)(C)C(C)C`, the melting point was in the range of 98 to 100 °C.

Consider `CCOC(=O)c1cc(O)c(-c2ccccc2)c([N+](=O)[O-])c1`, for which the melting point lay within 128 to 130 °C.

Compound `COc1cc(NC(=O)C2C(=O)N(C)C(=O)N(C)C2=O)ccc1Oc1nnc(C(C)(C)C)s1` gave a melting point of 178 to 179 °C.

`COc1ccc(C(=O)C=Cc2cc(O)c(O)c([N+](=O)[O-])c2)cc1OC` yielded a melting point of 206 to 208 °C.

As to `COc1cc(N2CCN(Cc3ccccc3)CC2)c2ncccc2c1Cl`, the melting point fell in the range of 138 to 140 °C.

As for `O=C(CCCN1CCCCC1)c1ccc2oc3ccc(C(=O)CCCN4CCCCC4)cc3c(=O)c2c1`, the melting point was 93 to 95 °C.

As to `Fc1ccc(OCc2cccc(Oc3ccnc(Cl)c3)n2)cc1`, the melting point was determined as 103 °C.

Compound `CCC(C#N)(Cn1cncn1)c1ccc(Br)cc1` (stereo not drawn) returned a melting point of 68 to 70 °C.

`O=c1[nH]nc(-c2cc(C(F)(F)F)cc(C(F)(F)F)c2)n1-c1cc(Cl)ccc1O` yielded a melting point of 275 to 278 °C.

As for `CC(N)C(=O)Nc1cc(OCC(F)(F)F)ccc1-c1ccccn1` (stereo not drawn), the melting point fell in the range of 85 to 86 °C.

For the compound `Cc1nc(NC(=O)c2cnn3c(C4CC4)cc(-c4ccc(Cl)cc4)nc23)sc1S(=O)(=O)NC(C)(C)CO`, the melting point fell in the range of 293 to 294 °C.

In turn, `Cc1cc(CO)cc([N+](=O)[O-])c1` displayed a melting point of 56.8 to 57.9 °C.

As for `O=C(O)CCSCSCC(C(=O)O)c1cccc(OCc2ccc3ccc(Cl)cc3n2)c1` (stereo not drawn), the melting point amounted to 142 °C.

`COc1ccc(-n2nc(C(C)(C)C)cc2NC(=O)c2cccc3cc(Oc4cc(Cl)ncn4)ccc23)cc1`: the melting point is 163 to 164 °C.

`CC(=O)Oc1ccc(C(=O)N2CCN(C(N)=O)C2=O)cc1OC(C)=O` displayed a melting point of 222 to 224 °C.

Compound `CC(C)(C)c1ccc(C(=O)CCCCCc2ccccc2)cc1NC(=O)CC1c2ccccc2Oc2ccccc21` returned a melting point of 119 to 120 °C.

Take `CS(=O)(=O)c1cc(C(=O)NCCN2CCOCC2)c(NCc2ccco2)cc1Cl`: the melting point lay within 127 to 130 °C.

Regarding `CN1N=C(c2cccc(F)c2)c2cc(Cl)ccc2CS1(=O)=O`, the melting point was 172 to 173 °C.

In turn, `CC1(C)C=C(C(=O)O)CC1` gave a melting point of 67 to 69 °C.

The compound `CCOc1ccc(C2=NN(C3CCCC3)C(=O)[C@H]3CCCC[C@@H]23)cc1OCC` (relative stereo) showed a melting point of 111 to 114 °C.

For `CCCCS(=O)(=O)NCc1ccc(CCN2CCN(c3ccncc3)CC2)cc1`, the melting point was in the range of 154 to 156 °C.

On to `CC(C)c1cccc(C(C)C)c1NC(=O)N(Cc1ccc(N(C)C)cc1)c1ccc(Br)cc1`, for which the melting point was 165 to 166 °C.

As to `CCCCN1CCC(CNC(=O)c2ccc(N)n3cc(C(C)C)nc23)CC1`, the melting point stood at 138 °C.

With `Cc1ccc(-c2nc(CCCCCCOC(C)(C)C#N)c(C)o2)cc1`, the melting point came out at 36 °C.

With `CCOC(=O)C(=O)c1oc2cc(C)ccc2c1O`, the melting point lay in the range of 113 to 115 °C.

As for `O=C(Cn1c(-c2cccc(Cl)c2)nc2cccnc21)NCCN1CCCCC1`, the melting point is 114 to 115 °C.

As to `Cc1ccc(S(=O)(=O)c2ccc(Cl)c(NC(=O)N[C@@H](Cc3ccc(NC(=O)c4c(Cl)cccc4Cl)cc3)C(=O)O)c2)cc1`, the melting point was 241 °C.

As for `CCC(=O)Nc1nc(C(Cl)(Cl)Cl)ns1`, the melting point was 150 °C.

`Cn1ccnc1CC1COc2ccccc2O1` (stereo not drawn) had a melting point of 158 to 160 °C.

Take `COC(=O)CC(O)/C=C/c1c(-c2ccc(F)cc2)n(C(C)C)c(=O)c2ccccc12` (stereo not drawn): the melting point was 167 to 168 °C.

`CCCCOc1ccc(OCC2(O)CN3CCC2CC3)cc1` (stereo not drawn) showed a melting point of 110 to 112 °C.

Consider `COC(=O)N(C)CC#CCn1ccnc1`, for which the melting point lay in the range of 113 to 115 °C.

Compound `CCN(CC)CCc1cccc(Nc2ncc3c(n2)N(c2cccc(C(N)=O)c2)C(=O)N(c2ccc(OC)cc2)C3C)c1` (stereo not drawn) had a melting point of 170 to 175 °C.

Take `OC(CCSC(=S)Nc1ccc(Cl)cn1)c1ccccc1` (stereo not drawn): the melting point was found to be 91 °C.

With `[N-]=[N+]=NC1CC(n2cnc3c(N4CCC4)nc(N)nc32)OC1CO` (stereo not drawn), the melting point was in the range of 141 to 143 °C.

In the case of `Nc1nc(NCCC2CCCCC2)nc2c1ncn2C1OC(CO)C(O)C1O` (stereo not drawn), the melting point was 142 to 145 °C.

`COc1ccc2c(c1)NC(=O)C(N=[N+]=[N-])CC2` (stereo not drawn) registered a melting point of 136 to 138 °C.

`CC1C(=O)Nc2c(C(=O)c3ccc(Br)cc3)cccc21` (stereo not drawn) came in with a melting point of 245 to 247 °C.

`CN(C)[C@H]1CCN(C(=O)c2ccc(Cc3cn(C)c4ccccc34)cc2)C1` showed a melting point of 101 to 105 °C.

Compound `C#CCN(C(=O)c1cnc(Cl)nc1C(F)(F)F)S(=O)(=O)c1cccc(Cl)c1` gave a melting point of 106 to 107 °C.

In turn, `CCOC(=O)C1CNC(=O)CC1c1ccc(F)cc1` (stereo not drawn) gave a melting point of 116 to 120 °C.

In turn, `CC(C)(C)OC(=O)N(C(=N)N)C(=O)OC(C)(C)C` gave a melting point of 144 to 145 °C.

For the compound `COC(=O)C1Oc2ccc(C)cc2C(C)(c2ccccc2)O1` (stereo not drawn), the melting point came to 100 °C.

As to `CN1CC2=C(n3cnc(C#Cc4ccccc4)c3C1)S(=O)C=C2` (stereo not drawn), the melting point was 143 to 144 °C.

Take `COC(=O)C1=C(C)NC(=O)N(C(=O)Oc2ccc([N+](=O)[O-])cc2)C1c1ccc(F)c(F)c1` (stereo not drawn): the melting point was in the range of 185 to 186 °C.

Compound `COc1ccc(C(C#N)N(C)C(=O)C(Cl)Cl)cc1OC` (stereo not drawn) had a melting point of 102 °C.

Compound `CCCCOc1ccc(NC(=O)NCC2(c3ccccc3)CCCCC2)cc1` displayed a melting point of 142 to 143 °C.

Consider `CCCCc1c2c(nc3cc(F)cc(F)c13)-c1cc3c(c(=O)n1C2)COC(=O)CC3(O)CC` (stereo not drawn), for which the melting point came out at 190 °C.

`COc1ccc(-c2cc(OC3SCC(O)C(O)C3O)ccn2)cc1` (stereo not drawn): the melting point was 150 to 154 °C.

`CSC(=S)NCCCN1CCN(c2ccccc2)CC1` gave a melting point of 75 to 79 °C.

Take `CC(C)(C)c1ocnc1C=C(O)C(=O)N[C@@H](Cc1ccccc1)C(N)=O`: the melting point lay in the range of 50 to 53 °C.

Turning to `O=C(O)c1cccc(OCCF)c1OCCF`, the melting point fell in the range of 104 to 105 °C.

Compound `CCOC(=O)C1=C(C)N2CCCC2=C(C(C)=O)C1c1ccccc1C#N` (stereo not drawn) had a melting point of 167 °C.

Compound `CCc1cn(C2CC(O)C(CO)O2)c(=O)nc1NC(=O)c1ccccc1` (stereo not drawn) yielded a melting point of 172 to 174 °C.

`CCOC(=O)CCc1ccnc(O)c1` showed a melting point of 73 to 76.5 °C.

The compound `CSc1ccc(C(CC2CCCC2)C(=O)Nc2ccc([N+](=O)[O-])cn2)cc1C(F)(F)F` (stereo not drawn) returned a melting point of 109 to 110 °C.

Consider `CCCCc1ncc(C=C(Cc2cccs2)C(=O)O)n1Cc1cccc(C(=O)O)c1`, for which the melting point lay within 243 to 244 °C.

Regarding `NCCNC(=O)CNC(=O)Cc1ccccc1`, the melting point was in the range of 132 to 137 °C.

The compound `CCCc1nn(-c2ccc(C(F)(F)F)cn2)cc1CCCOc1ccc(CCC(=O)O)c(OC)c1` gave a melting point of 114 to 115 °C.

For the compound `CC1(CN2CCN(c3nc4ccccc4o3)CC2)Cn2cc([N+](=O)[O-])nc2O1` (stereo not drawn), the melting point lay in the range of 228 to 230 °C.

`Clc1cncc(Cl)c1CBr` yielded a melting point of 40 to 44 °C.

The compound `COc1cc2c(cc1-c1cccc(F)n1)-c1c(-c3cncs3)c3c(n1CC2)C(=O)N(C(C)(C)C)CCOC3` yielded a melting point of 232 to 234 °C.

For `COc1ccc(S(=O)(=O)C(CC=C(C)C)(Cc2ccc(OCCN3CCOCC3)cc2)C(=O)NO)cc1` (stereo not drawn), the melting point came to 92 °C.

`NC(=O)Nc1cccc(CO)c1` registered a melting point of 188 to 202 °C.

`N#CC(CC(=O)c1ccc(C(F)(F)F)cc1)C1CC1` (stereo not drawn) came in with a melting point of 91 to 93 °C.

`COC(=O)CCCc1cc2c(Nc3cc(OC)c(OC)c(OC)c3)c(C#N)cnc2s1` gave a melting point of 101 to 103 °C.

`COc1ccc(Br)c(C(=O)N2CCN(S(=O)(=O)c3cccc(F)c3)CC2)c1` returned a melting point of 145 °C.

As for `O=S(=O)(c1ccc(Nc2ccnc3cc(C(F)(F)F)ccc23)cc1)N1CCN(c2ccccn2)CC1`, the melting point is 202 to 203 °C.

The compound `CCOCc1nc2cnc(C)c(C)c2n1NC1CCOCC1` yielded a melting point of 94 to 97 °C.

As to `C=C(c1ccccc1)c1ccc(N2CCCC2)cc1`, the melting point lay within 82.5 to 83 °C.

In turn, `Cc1ccn(-c2ccc(C)c(C(=O)N3Cc4cccnc4Nc4ccccc43)c2)n1` displayed a melting point of 209 to 210 °C.

Take `O=C(COc1ccc(CCNCC(O)COc2ccccc2)cc1)NO` (stereo not drawn): the melting point lay within 126 to 128 °C.

Consider `CCOC(=O)c1ccc(NC(=O)CCc2ccc3ccccc3c2)cc1`, for which the melting point lay in the range of 119 to 121 °C.

For `COc1cccc(C2c3ccccc3C(c3ccc4c(c3)OCO4)C2C(=O)O)c1` (stereo not drawn), the melting point fell in the range of 131 to 133 °C.

Compound `O=C(C=Cc1ccc(COc2ccccc2)cc1)NC(Cc1ccccc1)C(=O)O` (stereo not drawn) had a melting point of 205 °C.

In the case of `CCCCCC(=O)N1C(CCCCC)NC(=O)CC1C(=O)O` (stereo not drawn), the melting point lay in the range of 55 to 56 °C.

The compound `O=C1CC(ON(Cc2ccccc2)Cc2ccccc2)C(=O)N1c1ccccc1` (stereo not drawn) registered a melting point of 91 to 93 °C.

`CCOC(=O)Cc1csc(N=C2SC[C@@H]3Cc4ccccc4CN23)n1`: the melting point was found to be 105 °C.

With `CCC(COC)Nc1nc(C)nc(N2CCc3cc(OC)cc(Cl)c32)c1C#N` (stereo not drawn), the melting point fell in the range of 182 to 183 °C.

`CN(C(=O)N1CCCC1)c1cccc2cc(-c3nccs3)[nH]c12` yielded a melting point of 182 °C.

Regarding `OC1CSC(Oc2cccnc2-c2ccc(F)cc2)C(O)C1O` (stereo not drawn), the melting point was 110 °C.

Take `O=Cc1ccc(-c2noc(-c3ccc(C(F)(F)F)cc3)n2)cc1`: the melting point was 145 to 146 °C.

For orientation: melting point means the temperature, or range, at which the solid turns liquid.
